Data as given in patent publication EP4353711A1, “QUINOLIN-2-YL NITRONES FOR THE TREATMENT AND PREVENTION OF STROKE” (Consejo Superior De Investigaciones Científicas, priority 2022, dated 2024).

Tested on: male C57BL/6J mice
Assay: pMCAO stroke model, infarct volume by T2-weighted MRI
Format: in vivo
Conditions: 85 mg/kg QN11 intraperitoneally 15 min after arterial ligature
Method: To study of the effects of QN11 on stroke recovery, administration of the vehicle and QN11 molecule was performed intraperitoneally, to 8-week-old male C57BL/6J mice (Harlan) weighing 25-30 g. All procedures with animals were carried out under a protocol approved by the Ethical Committee of the Spanish National Research Council (CSIC), and recommendations of the European Council. A special effort was made to keep to a minimum necessary the number of animals to achieve adequate significance. For surgery, anaesthesia induction was carried out with 3% isoflurane (in 70% N2O, 30% O2), followed by 2% isoflurane for maintenance during stroke procedure. Rectal temperature was maintained at 36.5 °C with the use of a heating pad. The common branch of the middle cerebral artery was, after craniotomy, exposed and occluded permanently by suture ligation. To ensure a complete artery occlusion during surgery, cortical blood flow was monitored by non-invasive laser Doppler flowmetry, as a quality control, with the aid of a Perimed equipment (PeriFlux System 5000 Stroke Model Monitor, Perimed, Järfälla, Sweden). […] Animals subjected to surgery for longer than 15 min were excluded of the study. Physiological parameters were maintained. […]
MRI is the most commonly used diagnostic tool for stroke. […] All MRI data was analysed using ImageJ software. […]

[O-]/[N+](=C\c1ccc2cccc(O)c2n1)Cc1ccccc1 [QN11, (Z)-N-Benzyl-1-(8-hydroxyquinolin-2-yl)methanimine oxide]
reduction in the percentage of brain infarct volume (MRI 48 h after pMCAO, compared with vehicle-treated animals (group b)): 74,47%
infarct volume with regard to the whole brain volume (T2WI MRI 48 h after pMCAO, vehicle group b 2.453 %): 0.6262%
